{"source": "paper PMC8348686", "about": "“The Pharmacological Profile of Second Generation Pyrovalerone Cathinones and Related Cathinone Derivative” (International Journal of Molecular Sciences, 2021)", "origin": "cited, not measured here", "key": {"h5-HT2A receptor": {"molecular_target": "h5-HT2A receptor (Homo sapiens, UniProt P28223)", "sequence (P28223 whole entry)": "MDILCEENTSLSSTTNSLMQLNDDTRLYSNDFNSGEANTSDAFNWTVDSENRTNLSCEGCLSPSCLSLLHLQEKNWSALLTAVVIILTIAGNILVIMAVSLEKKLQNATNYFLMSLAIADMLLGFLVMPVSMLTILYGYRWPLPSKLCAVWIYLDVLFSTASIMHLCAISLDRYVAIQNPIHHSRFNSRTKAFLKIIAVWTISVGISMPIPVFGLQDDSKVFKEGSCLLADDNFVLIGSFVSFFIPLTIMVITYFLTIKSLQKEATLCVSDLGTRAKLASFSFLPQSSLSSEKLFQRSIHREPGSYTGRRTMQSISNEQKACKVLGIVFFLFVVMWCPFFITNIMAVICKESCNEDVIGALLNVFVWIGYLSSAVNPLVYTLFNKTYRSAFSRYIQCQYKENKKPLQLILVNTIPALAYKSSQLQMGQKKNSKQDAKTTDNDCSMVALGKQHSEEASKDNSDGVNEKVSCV", "parameters": "expressed in transfected cells; host or cells: HEK293 cell preparations", "conditions": "read-out: h5-HT2A Receptor Binding Ki ± SD; [3H]-Ketanserin; ref Simmler et al. (2013); cited from earlier work"}, "adrenergic α1A receptor": {"molecular_target": "T1, adrenergic α1A receptor (Homo sapiens, UniProt P35348)", "T1 sequence (P35348 1-466)": "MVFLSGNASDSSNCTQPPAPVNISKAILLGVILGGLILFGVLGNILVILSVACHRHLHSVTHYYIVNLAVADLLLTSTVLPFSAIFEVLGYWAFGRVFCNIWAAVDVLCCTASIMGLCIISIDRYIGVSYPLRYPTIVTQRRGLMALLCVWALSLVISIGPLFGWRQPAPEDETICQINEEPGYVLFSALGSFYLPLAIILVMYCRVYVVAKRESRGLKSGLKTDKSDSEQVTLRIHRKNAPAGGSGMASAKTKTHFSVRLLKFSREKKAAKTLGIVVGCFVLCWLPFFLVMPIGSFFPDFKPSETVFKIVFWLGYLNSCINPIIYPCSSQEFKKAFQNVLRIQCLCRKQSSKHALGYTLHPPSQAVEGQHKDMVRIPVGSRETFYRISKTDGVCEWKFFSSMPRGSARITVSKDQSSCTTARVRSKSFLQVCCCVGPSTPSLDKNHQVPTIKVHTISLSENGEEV", "conditions": "read-out: α1A Receptor Binding Ki ± SD; [3H]-Prazosin; ref Simmler et al. (2013); cited from earlier work"}, "h5-HT2B receptor": {"molecular_target": "T2, h5-HT2B receptor (Homo sapiens, UniProt P41595)", "T2 construct": "expressed in transfected cells; host or cells: HEK293", "T2 sequence (P41595 whole entry)": "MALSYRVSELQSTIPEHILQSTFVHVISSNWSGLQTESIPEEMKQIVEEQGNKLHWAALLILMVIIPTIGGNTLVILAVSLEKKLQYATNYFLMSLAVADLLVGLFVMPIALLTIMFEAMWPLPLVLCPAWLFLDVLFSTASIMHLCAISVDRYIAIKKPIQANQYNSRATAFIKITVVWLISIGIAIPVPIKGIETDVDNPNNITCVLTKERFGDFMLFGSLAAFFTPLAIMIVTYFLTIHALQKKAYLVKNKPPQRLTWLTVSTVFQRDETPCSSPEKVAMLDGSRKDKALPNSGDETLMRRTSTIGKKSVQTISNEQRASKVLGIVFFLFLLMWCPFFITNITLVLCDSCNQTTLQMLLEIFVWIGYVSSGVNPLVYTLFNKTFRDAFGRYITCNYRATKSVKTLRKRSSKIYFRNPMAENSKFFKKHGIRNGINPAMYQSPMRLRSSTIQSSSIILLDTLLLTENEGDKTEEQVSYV", "parameters": "method as in Rickli et al. (2015)", "conditions": "read-out: h5-HT2B Activation Potency EC50 ± SD; ref Rickli et al. (2015); cited from earlier work"}, "Human TAAR1": {"system": "Human TAAR1", "parameters": "method as in Simmler et al. (2016)", "conditions": "ref Simmler et al. (2016); read-out: Human TAAR1 Activation Potency EC50 ± SD; cited from earlier work"}, "dopaminergic D2 receptor": {"molecular_target": "dopaminergic D2 receptor (Homo sapiens, UniProt P14416)", "sequence (P14416 whole entry)": "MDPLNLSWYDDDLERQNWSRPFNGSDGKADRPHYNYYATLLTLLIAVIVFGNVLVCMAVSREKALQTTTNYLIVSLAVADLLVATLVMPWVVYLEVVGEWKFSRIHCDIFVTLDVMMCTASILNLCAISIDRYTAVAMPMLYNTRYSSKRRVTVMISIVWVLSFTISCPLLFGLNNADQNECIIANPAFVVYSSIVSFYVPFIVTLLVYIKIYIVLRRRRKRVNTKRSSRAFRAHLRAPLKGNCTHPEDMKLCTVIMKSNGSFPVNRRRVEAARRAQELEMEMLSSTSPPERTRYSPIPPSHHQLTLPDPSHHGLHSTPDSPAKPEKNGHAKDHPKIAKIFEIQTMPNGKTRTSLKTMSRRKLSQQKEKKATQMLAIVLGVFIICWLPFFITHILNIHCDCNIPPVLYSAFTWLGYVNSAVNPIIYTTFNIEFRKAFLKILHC", "conditions": "read-out: D2 Receptor Binding Ki ± SD; [3H]-Spiperone; ref Simmler et al. (2013); cited from earlier work"}, "h5-HT2C receptor": {"molecular_target": "T3, h5-HT2C receptor (Homo sapiens, UniProt P28335)", "T3 construct": "expressed in transfected cells; host or cells: HEK293 cell preparations", "T3 sequence (P28335 33-458)": "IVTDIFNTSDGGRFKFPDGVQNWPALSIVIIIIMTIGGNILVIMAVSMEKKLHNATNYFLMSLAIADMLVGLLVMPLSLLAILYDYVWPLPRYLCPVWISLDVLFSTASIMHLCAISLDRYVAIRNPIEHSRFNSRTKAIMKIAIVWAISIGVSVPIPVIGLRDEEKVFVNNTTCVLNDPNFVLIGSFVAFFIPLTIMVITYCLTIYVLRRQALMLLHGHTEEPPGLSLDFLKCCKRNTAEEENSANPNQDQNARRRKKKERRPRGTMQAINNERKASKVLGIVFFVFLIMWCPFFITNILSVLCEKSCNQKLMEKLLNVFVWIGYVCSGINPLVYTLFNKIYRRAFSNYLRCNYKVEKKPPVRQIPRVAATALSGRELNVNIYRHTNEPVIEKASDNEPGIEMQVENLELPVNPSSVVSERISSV", "conditions": "read-out: h5-HT2C Receptor Binding Ki ± SD; [3H]-Mesulgerine; ref Simmler et al. (2013); cited from earlier work"}, "Rat TAAR1": {"molecular_target": "Rat TAAR1", "conditions": "[3H]-RO5166017; ref Simmler et al. (2013); read-out: Rat TAAR1 Receptor Binding Ki ± SD; cited from earlier work"}, "Mouse TAAR1": {"molecular_target": "Mouse TAAR1", "conditions": "[3H]-RO5166017; ref Simmler et al. (2013); read-out: Mouse TAAR1 Receptor Binding Ki ± SD; cited from earlier work"}, "adrenergic α2A receptor": {"molecular_target": "T4, adrenergic α2A receptor (Homo sapiens, UniProt P08913)", "T4 sequence (P08913 1-465)": "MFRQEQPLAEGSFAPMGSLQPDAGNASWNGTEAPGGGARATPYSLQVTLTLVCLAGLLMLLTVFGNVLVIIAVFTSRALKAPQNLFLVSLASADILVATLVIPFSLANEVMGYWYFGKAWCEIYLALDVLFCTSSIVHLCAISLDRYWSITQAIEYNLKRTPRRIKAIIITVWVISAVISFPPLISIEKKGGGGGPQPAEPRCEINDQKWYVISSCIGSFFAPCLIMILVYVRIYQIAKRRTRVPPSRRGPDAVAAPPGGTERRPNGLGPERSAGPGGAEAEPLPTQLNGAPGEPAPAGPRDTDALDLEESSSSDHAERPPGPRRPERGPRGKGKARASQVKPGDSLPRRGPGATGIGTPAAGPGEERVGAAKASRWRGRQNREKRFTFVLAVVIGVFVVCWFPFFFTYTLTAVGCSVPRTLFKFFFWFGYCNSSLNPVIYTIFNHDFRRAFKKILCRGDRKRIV", "conditions": "read-out: α2A Receptor Binding Ki ± SD; [3H]-Rauwolscine; ref Simmler et al. (2013); cited from earlier work"}}, "data": [{"smiles": "CC(N)Cc1ccccc1", "note": "(stereo not drawn) [Amphetamine, amphetamine, reference compound]", "values": [{"measurement": "Ki", "setting": "h5-HT2A receptor", "value": "> 13000", "unit": "nM"}, {"measurement": "Ki", "setting": "adrenergic α1A receptor", "value": "> 6000", "unit": "nM"}, {"measurement": "EC50", "setting": "h5-HT2B receptor", "value": "9400 ± 1600", "unit": "nM"}, {"measurement": "EC50", "setting": "Human TAAR1", "value": "2800 ± 800", "unit": "nM"}, {"measurement": "Ki", "setting": "dopaminergic D2 receptor", "value": "> 30000", "unit": "nM"}, {"measurement": "Ki", "setting": "h5-HT2C receptor", "value": "> 13000", "unit": "nM"}, {"measurement": "Ki", "setting": "Rat TAAR1", "value": "230 ± 180", "unit": "nM"}, {"measurement": "Ki", "setting": "Mouse TAAR1", "value": "90 ± 60", "unit": "nM"}, {"measurement": "Ki", "setting": "adrenergic α2A receptor", "value": "2800 ± 800", "unit": "nM"}]}]}
